Columns and labels:
Assay type in all cases: cell-based
[1] = molecular target: T1, group I metabotropic glutamate receptor subtype 5 (mGluR5) (Homo sapiens, UniProt P41594); test: Electrophysiological measurement of response current in Xenopus oocytes injected with mGluR5 cRNA; conditions: aspartic acid 300 μM, valine 3 mM; for mGluR5 (receptor activation by amino acid): amino acid alone, others 10 mM, oocytes injected with mGluR5 cRNA; for mGluR5 (receptor activation by amino acid) / effect of amino acid (response current value) with nucleic acid and cation vs amino acid alone: cysteine 1 mM; for effect of amino acid (response current value) with nucleic acid and cation vs amino acid alone: coexistence with both inosinic acid (1 mM) and calcium ion (10 mM), FIG. 4; for effect of amino acid (response current value) with nucleic acid and cation vs amino acid alone / effect of amino acid (response current value) with cation vs amino acid alone / effect of amino acid (response current value) with nucleic acid vs amino acid alone: glutamic acid 3 μM; for effect of amino acid (response current value) with cation vs amino acid alone: coexistence with calcium ion (10 mM), FIG. 3; for effect of amino acid (response current value) with cation vs amino acid alone / effect of amino acid (response current value) with nucleic acid vs amino acid alone: cysteine 3 mM; for effect of amino acid (response current value) with nucleic acid vs amino acid alone: coexistence with inosinic acid (1 mM), FIG. 2
T1 construct: expressed in transfected cells; host or cells: Xenopus oocytes injected with cRNA
Description: A metabotropic glutamate receptor subtype 5 (mGluR5) was used as a group I metabotropic glutamate receptor. A metabotropic glutamate receptor subtype 3 (mGluR3) was used as a representative of group II metabotropic glutamate receptors. A metabotropic glutamate receptor subtype 8 (mGluR8) was used as a representative of group III metabotropic glutamate receptors. The genes of the three metabotropic glutamate receptors, G-protein-gated inward rectifier K channel 1 (GIRK1), and G-protein-gated inward rectifier K channel 4 (GIRK4) were prepared as follows.
PCR was performed using a cDNA derived from the human brain (manufactured by Clontech) as a material and using Pfu ultra DNA Polymerase (manufactured by Stratagene) under the following conditions. After a 3-minute reaction at 94° C., a cycle of 94° C./30 seconds, 55° C./30 seconds, and 72° C./2 minutes was repeated 35 times, followed by a 7-minute reaction at 72° C. Amplified PCR products were subjected to agarose gel electrophoresis, stained with a DNA staining reagent and detected by UV irradiation. The lengths of the PCR products were confirmed by comparing the lengths with a DNA marker having a known size, which was electrophoresed simultaneously with the PCR products. A plasmid vector pBR322 was cleaved with a restriction enzyme EcoRV (manufactured by TAKARA BIO INC.). The respective gene fragments amplified by PCR were ligated to the cleaved site using Ligation Kit (manufactured by Promega). Escherichia coli DH5a strain was transformed with the reaction solution, and transformants carrying plasmids where the PCR products were cloned were selected. The PCR amplified products were identified by DNA sequence analysis. The recombinant plasmids were used as a template to prepare cRNA of each of the receptor genes using a cRNA preparation kit (Ambion, Inc.).
Special grade reagents of twenty-three L-amino acids including alanine, arginine, asparagine, aspartic acid, cysteine, glutamine, glutamic acid, glycine, histidine, isoleucine, leucine, lysine, methionine, phenylalanine, proline, serine, threonine, tryptophan, tyrosine, valine, ornithine, taurine, and hydroxyproline were used. Special grade reagents of inosine and calcium chloride were used. Glutamine and cysteine were prepared every time before use, and the other reagents were prepared and stored at −20° C. A solution for dissolving amino acids, nucleic acids, and cations, a solution for preparing Xenopus oocytes, and a solution for culturing Xenopus oocytes have the following composition. NaCl 96 mM/KCl 2 mM/MgCl2 1 mM/CaCl2 1.8 mM/Hepes 5 mM/pH 7.2.
Ca ion concentration-dependent Cl ion current measurement method using a Xenopus oocyte expression system was used as a method of measuring the signaling via a metabotropic glutamate receptor. The abdomen of a Xenopus were incised, and the egg mass was removed and treated with a 1% collagenase solution at 20° C. for 2 hours, to thereby obtain individual oocytes. To one oocyte was introduced 50 nl of 1 μg/μl receptor cRNA or 50 nl of distilled water using a microcapillary, followed by culture at 18° C. for 2 or 3 days. This culture was performed using a solution obtained by adding 2 mM pyruvic acid, 10 U/ml penicillin, and 10 μg/ml streptomycin to the solution shown in Example 2. After completion of culture, a ligand solution was added to oocytes injected with the cRNA and oocytes injected with distilled water, respectively. Electrophysiological measurement was performed using an amplifier Geneclamp 500 (manufactured by Axon Instruments, Inc.) and recording software AxoScope 9.0 (manufactured by Axon Instruments, Inc.). The oocytes were subjected to membrane potential fixation at −70 mV by a two-electrode membrane potential fixation method, and intracellular currents via Ca ion concentration-dependent Cl ion were measured. The maximal value of the intracellular currents was defined as a response current value.

[2] = molecular target: T2, group II metabotropic glutamate receptor subtype 3 (mGluR3) (Homo sapiens, UniProt Q14832); test: Electrophysiological measurement of response current in Xenopus oocytes injected with mGluR3, GIRK1 and GIRK4 cRNAs; conditions: for mgluR3 (receptor activation by amino acid): amino acid alone, 1 mM, oocytes injected with mGluR3, GIRK1, GIRK4 cRNAs; for effect of amino acid (response current value) with cation vs amino acid alone: coexistence with calcium ion (10 mM), FIG. 7; for effect of amino acid (response current value) with cation vs amino acid alone / effect of amino acid (response current value) with nucleic acid and cation vs amino acid alone / effect of amino acid (response current value) with nucleic acid vs amino acid alone: glutamic acid 3 μM, aspartic acid 300 μM, leucine 1 mM; for effect of amino acid (response current value) with cation vs amino acid alone / effect of amino acid (response current value) with nucleic acid and cation vs amino acid alone: cysteine 1 mM; for effect of amino acid (response current value) with nucleic acid and cation vs amino acid alone: coexistence with inosinic acid (1 mM) and calcium ion (10 mM), FIG. 8; for effect of amino acid (response current value) with nucleic acid vs amino acid alone: coexistence with inosinic acid (1 mM), valine 1 mM, FIG. 6
T2 construct: expressed in transfected cells; host or cells: Xenopus oocytes injected with cRNAs of mGluR3, GIRK1 and GIRK4

[3] = molecular target: T3, group III metabotropic glutamate receptor subtype 8 (mGluR8) (Homo sapiens, UniProt O00222); test: Electrophysiological measurement of response current in Xenopus oocytes injected with mGluR8, GIRK1 and GIRK4 cRNAs; conditions: cysteine 1 mM; for mgluR8 (receptor activation by amino acid): amino acid alone, aspartic acid 300 μM, valine 3 mM, others 10 mM, oocytes injected with mGluR8, GIRK1, GIRK4 cRNAs; for effect of amino acid (response current value) with nucleic acid and cation vs amino acid alone: coexistence with both inosinic acid (1 mM) and calcium ion (10 mM), FIG. 12; for effect of amino acid (response current value) with nucleic acid and cation vs amino acid alone / effect of amino acid (response current value) with cation vs amino acid alone / effect of amino acid (response current value) with nucleic acid vs amino acid alone: glutamic acid 3 μM; for effect of amino acid (response current value) with cation vs amino acid alone: coexistence with calcium ion (10 mM), FIG. 11; for effect of amino acid (response current value) with nucleic acid vs amino acid alone: coexistence with inosinic acid (1 mM), FIG. 10
T3 construct: expressed in transfected cells; host or cells: Xenopus oocytes injected with cRNAs of mGluR8, GIRK1 and GIRK4
T3 sequence (O00222 34-908): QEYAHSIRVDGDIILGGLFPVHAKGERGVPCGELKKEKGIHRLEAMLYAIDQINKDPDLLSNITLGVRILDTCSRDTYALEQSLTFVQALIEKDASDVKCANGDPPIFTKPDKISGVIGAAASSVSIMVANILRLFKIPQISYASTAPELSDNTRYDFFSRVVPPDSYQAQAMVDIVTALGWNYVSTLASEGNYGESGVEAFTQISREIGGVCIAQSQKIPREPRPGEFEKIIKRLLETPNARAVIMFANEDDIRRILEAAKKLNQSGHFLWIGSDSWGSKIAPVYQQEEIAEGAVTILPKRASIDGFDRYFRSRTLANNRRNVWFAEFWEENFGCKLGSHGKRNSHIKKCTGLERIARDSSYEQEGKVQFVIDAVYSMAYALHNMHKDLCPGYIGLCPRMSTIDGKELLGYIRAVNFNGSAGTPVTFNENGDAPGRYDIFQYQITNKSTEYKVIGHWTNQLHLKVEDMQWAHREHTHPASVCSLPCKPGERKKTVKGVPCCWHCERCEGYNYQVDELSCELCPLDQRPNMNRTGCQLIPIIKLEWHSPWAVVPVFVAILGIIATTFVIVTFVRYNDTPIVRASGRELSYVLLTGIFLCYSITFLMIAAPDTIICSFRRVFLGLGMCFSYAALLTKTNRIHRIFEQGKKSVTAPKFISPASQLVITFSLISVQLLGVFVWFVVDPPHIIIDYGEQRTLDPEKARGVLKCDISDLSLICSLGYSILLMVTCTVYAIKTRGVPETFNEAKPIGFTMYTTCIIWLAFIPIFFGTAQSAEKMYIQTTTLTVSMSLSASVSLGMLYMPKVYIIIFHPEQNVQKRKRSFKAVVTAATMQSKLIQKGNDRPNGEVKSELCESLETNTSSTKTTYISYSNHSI

T2 sequence (Q14832 23-879): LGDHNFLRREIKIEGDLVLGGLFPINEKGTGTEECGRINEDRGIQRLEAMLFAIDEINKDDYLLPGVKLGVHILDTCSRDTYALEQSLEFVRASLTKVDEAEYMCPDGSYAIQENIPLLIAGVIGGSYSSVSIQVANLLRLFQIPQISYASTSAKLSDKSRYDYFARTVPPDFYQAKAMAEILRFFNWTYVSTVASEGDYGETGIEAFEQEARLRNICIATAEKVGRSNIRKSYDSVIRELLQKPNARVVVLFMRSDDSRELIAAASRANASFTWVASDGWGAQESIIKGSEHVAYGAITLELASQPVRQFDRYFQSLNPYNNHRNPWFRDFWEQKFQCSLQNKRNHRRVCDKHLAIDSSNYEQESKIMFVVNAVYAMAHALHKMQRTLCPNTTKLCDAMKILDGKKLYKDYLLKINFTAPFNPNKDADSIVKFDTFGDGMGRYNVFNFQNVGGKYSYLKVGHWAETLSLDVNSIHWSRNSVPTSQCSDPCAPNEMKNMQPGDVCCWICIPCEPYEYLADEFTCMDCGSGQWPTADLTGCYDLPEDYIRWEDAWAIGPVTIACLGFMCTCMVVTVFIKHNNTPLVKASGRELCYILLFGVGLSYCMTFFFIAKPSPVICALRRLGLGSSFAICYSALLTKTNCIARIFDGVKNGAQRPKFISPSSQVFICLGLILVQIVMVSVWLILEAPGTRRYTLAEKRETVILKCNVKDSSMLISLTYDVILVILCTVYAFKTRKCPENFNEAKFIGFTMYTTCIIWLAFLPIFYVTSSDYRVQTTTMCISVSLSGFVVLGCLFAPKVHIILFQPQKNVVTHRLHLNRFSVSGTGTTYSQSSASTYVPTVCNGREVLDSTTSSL
T1 sequence (P41594 21-1180 isoform P41594-2 limits assumed): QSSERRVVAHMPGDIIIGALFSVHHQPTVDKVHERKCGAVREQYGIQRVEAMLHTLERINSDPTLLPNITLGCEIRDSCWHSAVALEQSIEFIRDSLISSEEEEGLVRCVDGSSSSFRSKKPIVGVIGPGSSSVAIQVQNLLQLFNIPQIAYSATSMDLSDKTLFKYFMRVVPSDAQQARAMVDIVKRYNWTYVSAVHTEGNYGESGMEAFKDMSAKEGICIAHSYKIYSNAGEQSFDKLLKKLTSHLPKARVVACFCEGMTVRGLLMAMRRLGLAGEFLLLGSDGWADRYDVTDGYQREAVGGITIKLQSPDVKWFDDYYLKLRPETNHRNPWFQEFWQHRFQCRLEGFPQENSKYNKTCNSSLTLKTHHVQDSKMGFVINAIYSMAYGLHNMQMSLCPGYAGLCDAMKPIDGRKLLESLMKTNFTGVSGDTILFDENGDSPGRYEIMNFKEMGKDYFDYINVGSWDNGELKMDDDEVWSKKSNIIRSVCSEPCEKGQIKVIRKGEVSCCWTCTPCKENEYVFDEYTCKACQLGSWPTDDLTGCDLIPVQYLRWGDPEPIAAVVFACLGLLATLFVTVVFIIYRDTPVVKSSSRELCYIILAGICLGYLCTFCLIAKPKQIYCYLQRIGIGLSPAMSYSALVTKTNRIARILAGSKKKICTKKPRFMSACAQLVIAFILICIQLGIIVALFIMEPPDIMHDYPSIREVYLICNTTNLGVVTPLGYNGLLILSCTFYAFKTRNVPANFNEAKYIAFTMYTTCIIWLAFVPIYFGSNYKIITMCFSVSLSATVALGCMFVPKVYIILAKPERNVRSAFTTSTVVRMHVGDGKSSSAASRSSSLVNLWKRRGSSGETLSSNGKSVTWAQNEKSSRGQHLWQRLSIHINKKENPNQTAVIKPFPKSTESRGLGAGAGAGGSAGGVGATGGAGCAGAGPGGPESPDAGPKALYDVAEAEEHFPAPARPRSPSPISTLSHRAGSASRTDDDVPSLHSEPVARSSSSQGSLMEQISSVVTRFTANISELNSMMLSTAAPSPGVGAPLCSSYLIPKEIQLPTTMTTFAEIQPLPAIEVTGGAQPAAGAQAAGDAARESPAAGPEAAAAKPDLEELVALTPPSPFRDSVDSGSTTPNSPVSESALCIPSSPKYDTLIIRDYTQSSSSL

Q: What does the source list for `N[C@@H](CC(=O)O)C(=O)O` [Aspartic acid, aspartic acid]?
A: mGluR5 (receptor activation by amino acid) [1]: Activated; mGluR5 (receptor activation by amino acid) ([1]; listed as aspartic acid): effects of enhancing; effect of amino acid (response current value) with nucleic acid and cation vs amino acid alone [1]: enhanced; effect of amino acid (response current value) with cation vs amino acid alone [1]: enhanced; effect of amino acid (response current value) with nucleic acid vs amino acid alone [1]: enhanced; mgluR3 (receptor activation by amino acid) [2]: Activated; mgluR3 (receptor activation by amino acid) ([2]; listed as aspartic acid): effects of enhancing the activation; effect of amino acid (response current value) with cation vs amino acid alone [2]: enhanced; effect of amino acid (response current value) with nucleic acid and cation vs amino acid alone [2]: enhanced; effect of amino acid (response current value) with nucleic acid vs amino acid alone [2]: enhanced

Q: `N[C@@H](CS)C(=O)O` [Cysteine, cysteine] was tested. Which “mGluR5 (receptor activation by amino acid)” value (“mGluR5” below) [1] did it give?
A: Activated

Q: What about the “mGluR5” value ([1]; listed as cysteine) of the same molecule?
A: effects of enhancing

Q: What about the “effect of amino acid (response current value) with nucleic acid and cation vs amino acid alone” value [1] of the same molecule?
A: enhanced

Q: And the “effect of amino acid (response current value) with cation vs amino acid alone” value (shortened to “effect … with cation vs amino acid alone”) [1]?
A: enhanced

Q: And the “effect of amino acid (response current value) with nucleic acid vs amino acid alone” value (“effect … with nucleic acid vs amino acid alone” below) [1]?
A: enhanced

Q: And the “mgluR3 (receptor activation by amino acid)” value (“mgluR3” below) [2]?
A: Activated

Q: And the “mgluR3” value ([2]; listed as cysteine)?
A: effects of enhancing the activation

Q: And the “effect … with cation vs amino acid alone” value [2]?
A: enhanced

Q: And the “effect of amino acid (response current value) with nucleic acid and cation vs amino acid alone” value [2]?
A: enhanced

Q: What about the “mgluR8 (receptor activation by amino acid)” value (shortened to “mgluR8”) [3] of the same molecule?
A: Activated

Q: And the “mgluR8” value ([3]; listed as cysteine)?
A: effects of activating

Q: What about the “effect of amino acid (response current value) with nucleic acid and cation vs amino acid alone” value [3] of the same molecule?
A: enhanced

Q: What about the “effect … with cation vs amino acid alone” value [3] of the same molecule?
A: enhanced

Q: And the “effect … with nucleic acid vs amino acid alone” value [3]?
A: enhanced

Q: How did the “mGluR5” value [1] turn out when `N[C@@H](CCC(=O)O)C(=O)O` [Glutamic acid, glutamic acid, reference compound] was run?
A: Activated

Q: And the “mGluR5” value ([1]; listed as glutamic acid)?
A: effects of enhancing

Q: And the “effect of amino acid (response current value) with nucleic acid and cation vs amino acid alone” value [1]?
A: enhanced

Q: And the “effect … with cation vs amino acid alone” value [1]?
A: enhanced

Q: And the “effect … with nucleic acid vs amino acid alone” value [1]?
A: enhanced

Q: And the “mgluR3” value [2]?
A: Activated

Q: And the “mgluR3” value ([2]; listed as glutamic acid)?
A: effects of enhancing the activation

Q: What about the “effect … with cation vs amino acid alone” value [2] of the same molecule?
A: enhanced

Q: And the “effect of amino acid (response current value) with nucleic acid and cation vs amino acid alone” value [2]?
A: enhanced

Q: And the “effect … with nucleic acid vs amino acid alone” value [2]?
A: enhanced

Q: What about the “mgluR8” value [3] of the same molecule?
A: Activated

Q: What about the “mgluR8” value ([3]; listed as glutamic acid) of the same molecule?
A: effects of activating

Q: And the “effect of amino acid (response current value) with nucleic acid and cation vs amino acid alone” value [3]?
A: enhanced

Q: What about the “effect … with cation vs amino acid alone” value [3] of the same molecule?
A: enhanced

Q: And the “effect … with nucleic acid vs amino acid alone” value [3]?
A: enhanced

Q: How did the “mGluR5” value [1] turn out when `CC(C)[C@H](N)C(=O)O` [Valine, valine] was run?
A: Activated

Q: And the “mGluR5” value ([1]; listed as valine)?
A: effects of enhancing

Q: And the “effect of amino acid (response current value) with nucleic acid and cation vs amino acid alone” value [1]?
A: enhanced

Q: What about the “effect … with cation vs amino acid alone” value [1] of the same molecule?
A: enhanced

Q: What about the “effect … with nucleic acid vs amino acid alone” value [1] of the same molecule?
A: enhanced

Q: What about the “mgluR3” value [2] of the same molecule?
A: Activated

Q: And the “mgluR3” value ([2]; listed as valine)?
A: effects of enhancing the activation

Q: And the “effect … with nucleic acid vs amino acid alone” value [2]?
A: enhanced

Source: patent publication US20080182811A1, “METABOTROPIC GLUTAMATE RECEPTOR ACTIVATOR” (Ajinomoto Co., Inc., priority 2005, published 2008)
